Measurements reported in patent publication US20210038545A1 (priority 2018, published 2021).

Tested on: S. pneumoniae
Conditions: mice colonized with IAV (H1N1, 7 dpi) microbiota; acetate five days before 1×10^6 CFUs; vs vehicle-treated transplanted animals; FIG. 4A

CC(=O)O [acetate]
resistance to S. pneumoniae challenge: more resistant
